Experimental data taken from publication PMC12381781, “Structural and functional insights into the selective inhibition of mutant tau aggregation by purpurin and oleocanthal in frontotemporal dementia” (Protein Science : A Publication of the Protein Society, 2025).
Like-named read-outs stand apart in the source and are kept apart here.

Experiments:
R2R3 (V287I) tau peptide [1] = biological target: T1, R2R3 (V287I) tau peptide (Homo sapiens, UniProt P10636, V604I); experiment: SPR titration cycle kinetics, immobilized R2R3 (V287I) peptide; assay type: binding
T1 sequence (P10636 592-653 V604I): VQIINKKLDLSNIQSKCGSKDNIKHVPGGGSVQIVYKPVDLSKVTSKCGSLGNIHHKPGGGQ
Experimental: SPR experiments were conducted using the Sierra® SPR‐24 Pro system (Bruker Daltonics, Bremen, Germany), featuring a gold‐coated microfluidic array (24 detection spots, 3 × 8 format). Data acquisition and kinetic analysis were performed using SPR Analyzer 4 software.
All experiments were conducted at 25°C using PBS (pH 7.4) supplemented with 0.05% Tween‐20 and 5% DMSO as the running buffer to ensure assay reproducibility. Assay components, including 96‐well microtiter plates (Part # 1862984; Burker) and Microplate and Reservoir Sealer (Part #1862985; Burker), were used for sample handling and were compatible with the Sierra SPR®‐24 Pro system (Bruker Daltonics, Billerica, MA, USA).
WT and mutant (P301L, V287I, and N279K) tau peptides were dissolved in 10 mM sodium acetate buffer (pH 5.0; Burker) and immobilized onto High‐Capacity Amine Sensor Surfaces (Part #1862614; Bruker) using the Amine Coupling Kit (Part #1862634; Bruker). The sensor surface was preconditioned with a Surface Elution Buffer (Part #1862656; Bruker Daltonics) and 0.1M HCl to remove contaminants and improve binding specificity.
The surface was activated using 400 mM 1‐ethyl‐3‐(3‐dimethylaminopropyl) carbodiimide (Burker) and 50 mM N‐hydroxysuccinimide (Burker), enabling covalent attachment of tau peptides. Unreacted binding sites were blocked with 1M ethanolamine‐HCl (pH 8.5; Burker) to minimize nonspecific interactions. For each experiment, specific sensor spots (A/B/C) on channels 1–8 were designated for tau‐analyte interactions, with corresponding reference spots on the same channel for baseline correction. DMSO calibration solutions (4.6%, 4.8%, 5%, 5.2%, and 5.4%) were prepared for double referencing to compensate for DMSO solvent effects.
PUR and OLC were prepared in PBS (pH 7.4) supplemented with 0.05% Tween‐20 and 5% DMSO. Compound interactions with tau peptides were pre‐screened using a concentration range of 1–100 μM, and subsequent binding kinetics were evaluated at optimized concentrations. For kinetic studies, PUR was tested at […], while OLC was tested at 25–100 μM using two‐fold serial dilutions. Each analyte was sequentially injected, and association and dissociation phases were monitored to determine kinetic parameters.
SPR binding kinetics were assessed using the titration cycle kinetics (TCK) assay, which included consecutive association phases followed by a single dissociation phase. Pre‐assay simulations using the Kinetic Simulator feature of SPR Analyzer 4 software were used to optimize analyte concentration ranges and association/dissociation times. A reference blank injection was included for double referencing, and a single dissociation curve was recorded for the highest analyte concentration.
Sensorgrams were analyzed using the Kinetic Titration model, which was integrated into the global kinetic fitting model of the SPR Analyzer 4 software. This approach allowed for baseline correction and improved the reliability of kinetic parameters, including the Kon, Koff, and KD.
TCK‐derived kinetic parameters were compared across multiple runs and confirmed using Multi Injection Cycle Kinetics to validate reproducibility and accuracy.

R2R3 (N279K) tau peptide [2] = biological target: T2, R2R3 (N279K) tau peptide (Homo sapiens, UniProt P10636, N596K); experiment: Atomic force microscopy of R2R3 (N279K) aggregates; assay type: biochemical; details: compound 10 μM, 48 h
T2 sequence (P10636 592-653 N596K): as the sequence (P10636 592-653 V604I) above, with N5K, I13V counted along it
Experimental: Aggregates collected after 48 h of aggregation were processed for AFM analysis as described previously (Annadurai, Malina, Malohlava, et al., [2022]).

R2R3 (N279K) tau peptide [3] = biological target: T2, R2R3 (N279K) tau peptide; experiment: ThT aggregation assay of monomeric R2R3 (N279K) peptide; assay type: biochemical; details: for ThT-stained aggregates, confocal imaging: R2R3 N279K, end of ThT assay
Experimental: (§1) The aggregation kinetics of tau peptides were monitored using a ThT assay. A 40 μL reaction mixture containing 15 μM ThT (Sigma‐Aldrich, Cat. # T3516‐5G) and 50 μM peptide in the absence (control) or presence of 0.1 μM, 1 μM, and 10 μM PUR or OLC was prepared on ice in aggregation buffer (20 mM Tris [pH 7.4], 100 mM NaCl, 1 mM ethylenediaminetetraacetic acid [EDTA]) containing 5 μM heparin (Sigma‐Aldrich, Cat. #H4784). dithiothreitol (DTT) was excluded to avoid its differential effects on the aggregation kinetics of tau peptides containing Cys291 or Cys322 and to prevent peroxide generation by redox‐active compounds like PUR, which can lead to oxidative artifacts and false‐positive inhibition signals, as reported in our previous study (Annadurai, Malina, Salmona, et al., [2022]). This mixture was then dispensed into a clear‐bottom, black 384‐well ViewPlate (Revvity, Waltham, MA, United States; Part # 6007460) and sealed with a TopSealA‐PLUS (Revvity) to prevent evaporation.
(§2) Aggregation was monitored using EnSpire Multimode Plate Reader (Revvity) at 37°C with constant agitation (1000 rpm). To minimize condensation, the upper heater temperature was set to 2°C higher than the lower heater temperature. ThT fluorescence (ThT—λ ex: 460–490 nm and λem: 500–550 nm) was recorded every 5–10 min for 48 h.
(§3) ThT fluorescence curves were fitted to a sigmoidal function in GraphPad Prism (version 10, San Diego, CA, USA) using the following equation:
(§4) Y=Top/1+expV50–X/Slope , where Y is the ThT fluorescence intensity, X is time (h), Top is the maximum fluorescence intensity, V50 is the time to reach 50% of Top, and Slope describes the steepness of the aggregation transition. Baseline fluorescence at the start of the measurements was relatively low across samples and was not separately fitted. In samples showing early increases in fluorescence, the aggregation trajectory was modeled directly without introducing an independent baseline parameter.
(§5) The V50 value obtained from each replicate was used as the aggregation t 1/2 for statistical analysis.
(§6) To evaluate the effect of compounds on the extent of aggregation, the AUC was calculated for each replicate ThT fluorescence curve using GraphPad Prism. AUC values were then normalized to the mean AUC of the untreated control group and expressed as “aggregation (% of control),” serving as an indirect and comparative measure of fibril formation.
Figure S11. Confocal imaging of ThT-stained aggregates formed in the presence of PUR and OLC (corresponding to Figure 3). At the end of the ThT aggregation assay, reaction mixtures containing WT or mutant R2R3 tau peptides (P301L, V287I, N279K), incubated in the absence (CTL) or presence of 10 µM PUR or OLC, were collected from assay wells, embedded in 0.05% low-melting agarose, and imaged. ThT fluorescence was acquired using a Yokogawa Cell Voyager 7000S high-content imaging system equipped with a 20× objective (Ex: 460–490 nm, Em: 500–550 nm) and analyzed with Signals Image Artist (Revvity). […] Scale bar: 20 μm.

R2R3 (V287I) tau peptide [4] = biological target: T1, R2R3 (V287I) tau peptide; experiment: ThT aggregation assay of monomeric R2R3 (V287I) peptide; assay type: biochemical; details: for ThT-stained aggregates, confocal imaging: R2R3 V287I, compound 10 μM, end of ThT assay
Experimental: as §1, §2, §3, §4, §5, §6
Figure S11. Confocal imaging of ThT-stained aggregates formed in the presence of PUR and OLC (corresponding to Figure 3). […] ThT fluorescence was acquired using a Yokogawa Cell Voyager 7000S high-content imaging system equipped with a 20× objective (Ex: 460–490 nm, Em: 500–550 nm) and analyzed with Signals Image Artist (Revvity). […]

Compound	Kd (R2R3 (V287I) tau peptide [1]) [µM]	kon (R2R3 (V287I) tau peptide [1]; SPR, R2R3 V287I) [M⁻¹ s⁻¹]	koff (R2R3 (V287I) tau peptide [1]; SPR, R2R3 V287I, read-out: Koff) [s⁻¹]	AFM morphology of aggregates (R2R3 (N279K) tau peptide [2])	remaining activity at 0.1 µM (R2R3 (N279K) tau peptide [3]; R2R3 N279K 50 μM, compound 0.1 μM, read-out: aggregation (% of control), AUC of ThT fluorescence) [%]	remaining activity at 1 µM (R2R3 (N279K) tau peptide [3]; R2R3 N279K 50 μM, compound 1 μM, read-out: aggregation (% of control), AUC of ThT fluorescence) [%]	ThT-stained aggregates, confocal imaging (R2R3 (N279K) tau peptide [3]; compound 10 μM)	remaining activity at 0.1 µM (R2R3 (V287I) tau peptide [4]; R2R3 V287I 50 μM, compound 0.1 μM, read-out: aggregation (% of control), AUC of ThT fluorescence) [%]	ThT-stained aggregates, confocal imaging (R2R3 (V287I) tau peptide [4])	Kon (R2R3 (V287I) tau peptide [1]; SPR, R2R3 V287I) [M⁻¹ s⁻¹]	koff (R2R3 (V287I) tau peptide [1]; SPR, R2R3 V287I) [s⁻¹]	Kd (R2R3 (V287I) tau peptide [1]; SPR, R2R3 V287I peptide immobilized, 25°C, PBS pH 7.4, read-out: KD) [µM]	aggregation (% of control), AUC of ThT fluorescence (R2R3 (N279K) tau peptide [3]; R2R3 N279K 50 μM, compound 0.1 μM) [%]	aggregation (% of control), AUC of ThT fluorescence (R2R3 (N279K) tau peptide [3]; R2R3 N279K 50 μM, compound 1 μM) [%]	aggregation, ThT fluorescence (R2R3 (N279K) tau peptide [3]; R2R3 N279K 50 μM, compound 10 μM)	aggregation (% of control), AUC of ThT fluorescence (R2R3 (V287I) tau peptide [4]; R2R3 V287I 50 μM, compound 0.1 μM) [%]
O=C1c2ccccc2C(=O)c2c(O)c(O)cc(O)c21 [PUR, purpurin]	4.73	42.1	0.000199	no fibrillar or aggregated structures were detected	44	19	marked reduction in ThT signal	44	marked reduction in ThT signal							
C/C=C(/C=O)[C@@H](CC=O)CC(=O)OCCc1ccc(O)cc1 [OLC, oleocanthal]				no fibrillar or aggregated structures were detected			marked reduction in ThT signal		marked reduction in ThT signal	42.24	8.69e-05	2.06	74	61	complete aggregation suppression	71
